In assay [1] the target is T1, human muscarinic M4 receptor (Homo sapiens, UniProt P08173).
T1 construct: expressed in transfected cells
T1 sequence (P08173 1-479): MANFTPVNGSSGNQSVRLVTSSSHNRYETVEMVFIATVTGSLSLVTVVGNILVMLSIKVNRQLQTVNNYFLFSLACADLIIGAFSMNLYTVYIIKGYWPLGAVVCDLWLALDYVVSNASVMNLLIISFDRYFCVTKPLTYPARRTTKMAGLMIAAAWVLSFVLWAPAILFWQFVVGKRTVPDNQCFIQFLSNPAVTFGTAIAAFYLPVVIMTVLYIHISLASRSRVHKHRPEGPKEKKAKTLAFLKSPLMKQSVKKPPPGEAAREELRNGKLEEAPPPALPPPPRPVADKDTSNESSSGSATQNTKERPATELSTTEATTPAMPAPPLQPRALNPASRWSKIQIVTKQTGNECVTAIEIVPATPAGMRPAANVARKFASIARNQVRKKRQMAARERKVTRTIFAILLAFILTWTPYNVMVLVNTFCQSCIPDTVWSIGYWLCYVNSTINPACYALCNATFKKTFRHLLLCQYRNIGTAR
The experiment in a line: Alphascreen Surefire phospho-ERK1/2 functional assay, M4. It is filed as cell-based. To be noted: for EC50 / % Emax cf. ACh, M4: CHO cells stably expressing human M4; for EC50: phospho-ERK1/2, * = variable results, read-out: pEC50 M4 (converted); for Emax: CHO, read-out: % Emax cf. ACh, M4, CHO cells stably expressing human M4; for Emax / % Emax cf. ACh, M4: relative to ACh. (In general: Bead proximity is the source of the signal in Alpha formats.)

The target in assay [2] is T2, human muscarinic M1 receptor (Homo sapiens, UniProt P11229).
T2 sequence (P11229 1-460): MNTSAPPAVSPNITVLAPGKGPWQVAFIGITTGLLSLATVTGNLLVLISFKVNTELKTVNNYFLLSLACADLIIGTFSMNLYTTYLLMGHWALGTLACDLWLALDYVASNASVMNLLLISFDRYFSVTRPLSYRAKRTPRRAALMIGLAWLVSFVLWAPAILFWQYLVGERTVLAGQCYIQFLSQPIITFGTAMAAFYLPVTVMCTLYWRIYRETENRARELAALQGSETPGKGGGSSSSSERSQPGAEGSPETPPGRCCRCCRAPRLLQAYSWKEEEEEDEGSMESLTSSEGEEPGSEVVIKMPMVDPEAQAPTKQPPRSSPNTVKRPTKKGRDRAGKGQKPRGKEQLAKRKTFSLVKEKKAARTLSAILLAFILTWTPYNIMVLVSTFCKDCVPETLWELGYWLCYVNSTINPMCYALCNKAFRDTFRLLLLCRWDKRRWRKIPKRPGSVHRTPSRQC
The experiment in a line: Alphascreen Surefire phospho-ERK1/2 functional assay, M1. The format is cell-based. The following applies: for EC50 / % Emax cf. ACh, M1: CHO cells stably expressing human M1; for EC50: phospho-ERK1/2, * = variable results, read-out: pEC50 M1 (converted); for Emax: CHO, read-out: % Emax cf. ACh, M1, CHO cells stably expressing human M1; for Emax / % Emax cf. ACh, M1: relative to ACh.

In general, Emax refers to the size of the effect at its maximum, as opposed to the concentration needed. Take `CCOC(=O)N1CCC2(CC(N3CCC(N4CCC[C@H]4C(F)(F)F)CC3)C2)C1` (single isomer, unassigned) [2-101 Isomer 2]: the figures for the EC50 in assay [1] and in assay [2] were 631 nM and 10000 nM, respectively. The results for the Emax in assay [1] and in assay [2] were 98% and 70%, respectively.
Regarding `CCOC(=O)N1CCC2(CC(N3CCC(N4CC5CC5C4)CC3)C2)C1` (single isomer, unassigned) [2-105 Isomer 2, ethyl 2-[4-(3-azabicyclo[3.1.0]hex-3-yl)piperidin-1-yl]-6-azaspiro[3.4]octane-6-carboxylate], in assay [1], the EC50 is 200 nM and the Emax turned out to be 38%. In assay [2], the EC50 was over 20000 nM and the Emax came out at 26%.
Consider `CCOC(=O)N1CCC2(CC(N3CCC(N4C(=O)CCC4=O)CC3)C2)C1` (single isomer, unassigned) [2-112 Isomer 2, ethyl 2-[4-(2,5-dioxopyrrolidin-1-yl)piperidin-1-yl]-6-azaspiro[3.4]octane-6-carboxylate], for which, in assay [1], the EC50 was 251 nM and the Emax was 63%. For the same compound, in assay [2], the EC50 is over 20000 nM and the Emax is 7%.
For `CCOC(=O)N1CCC2(CC(N3CCC(N4C(=O)CC[C@H]4C)CC3)C2)C1` (single isomer, unassigned) [2-113 Isomer 2], in assay [1], the EC50 is 15.8 nM and the Emax was determined as 113%. In assay [2], the EC50 is 126 nM and the Emax was determined as 100%.
On the same counts, the results for `CCOC(=O)N1CCC2(CC(N3CCC(N4C(=O)CC[C@H]4CC)CC3)C2)C1` (single isomer, unassigned) [2-114 Isomer 2] are 7.94 nM, 114%, 126 nM and 103%.
On the same counts, the results for `CCOC(=O)N1CCC2(CC(N3CCC(N4C(=O)CC[C@@H]4C)CC3)C2)C1` (single isomer, unassigned) [2-115 Isomer 2] are 25.1 nM, 78%, 200 nM and 68%.
The like results for `CCOC(=O)N1CCC2(CC(N3CCC(N4C(=O)CC[C@@H]4CC)CC3)C2)C1` (single isomer, unassigned) [2-116 Isomer 2] were, in that order, 6.31 nM, 103%, 63.1 nM and 109%.
Take `CCOC(=O)N1CCC2(CC(N3CCC(N4C(=O)OC[C@H]4C)CC3)C2)C1` (single isomer, unassigned) [2-118 Isomer 2]: the EC50 is 126 nM in assay [1] and over 20000 nM in assay [2]. Moreover, the Emax in assay [1] was determined as 84%; in assay [2], 33%.
Consider `CCOC(=O)N1CCC2(CC(N3CCC(N4C(=O)OC[C@H]4CC)CC3)C2)C1` (single isomer, unassigned) [2-119 Isomer 2], for which, in assay [1], the EC50 was 126 nM and the Emax amounted to 84%. In assay [2], the EC50 was 2510 nM and the Emax turned out to be 85%.
The like results for `CCOC(=O)N1CCC2(CC(N3CCC(N4C(=O)OC[C@H]4C(C)C)CC3)C2)C1` (single isomer, unassigned) [2-120 Isomer 2] were, in that order, 316 nM, 87%, 398 nM and 96%.
For `CCOC(=O)N1CCC2(CC(N3CCC(N4C(=O)OC[C@@H]4C)CC3)C2)C1` (single isomer, unassigned) [2-121 Isomer 2], the EC50 in assay [1] is 200 nM; in assay [2], 1000 nM. Moreover, the Emax is 60% in assay [1] and 31% in assay [2].
The like results for `CCOC(=O)N1CCC2(CC(N3CCC(N4C(=O)OC[C@@H]4CC)CC3)C2)C1` (single isomer, unassigned) [2-122 Isomer 2] were, in that order, 158 nM, 1000 nM, 60% and 59%.
The like results for `CCOC(=O)N1CCC2(CC(N3CCC(N4CCN(C)C4=O)CC3)C2)C1` (single isomer, unassigned) [2-125 Isomer 2, ethyl 2-[4-(3-methyl-2-oxoimidazolidin-1-yl)piperidin-1-yl]-6-azaspiro[3.4]octane-6-carboxylate] were, in that order, 316 nM, 3980 nM, 81% and 32%.
The like results for `CCOC(=O)N1CCC2(CC(N3CCC(N4CCCC4c4ccn[nH]4)CC3)C2)C1` (single isomer, unassigned) [2-126 Isomer 2, ethyl 2-{4-[2-(1H-pyrazol-5-yl)pyrrolidin-1-yl]piperidin-1-yl}-6-azaspiro[3.4]octane-6-carboxylate] were, in that order, 79.4 nM, over 20000 nM, 60% and 15%.
On to `CCOC(=O)N1CCC2(CC(N3CCC(N4CCCC4c4ccon4)CC3)C2)C1` (single isomer, unassigned) [2-127 Isomer 2, ethyl 2-{4-[2-(1,2-oxazol-3-yl)pyrrolidin-1-yl]piperidin-1-yl}-6-azaspiro[3.4]octane-6-carboxylate], for which the EC50 in assay [1] is 10 nM; in assay [2], over 20000 nM. In addition, the values for the Emax in assay [1] and in assay [2] were 72% and 11%, respectively.
Turning to `CCOC(=O)N1CCC2(CC(N3CCC(N4CCCC4c4nnn[nH]4)CC3)C2)C1` (single isomer, unassigned) [2-128 Isomer 2, ethyl 2-{4-[2-(1H-tetrazol-5-yl)pyrrolidin-1-yl]piperidin-1-yl}-6-azaspiro[3.4]octane-6-carboxylate], in assay [1], the EC50 is 1580 nM and the Emax is 104%. In assay [2], the EC50 is 10000 nM and the Emax amounted to 89%.
Consider `CCOC(=O)N1CCC2(CC(N3CCC(N4CCCC4c4nnn(C)n4)CC3)C2)C1` (single isomer, unassigned) [2-129 Isomer 2, ethyl 2-{4-[2-(2-methyl-2H-tetrazol-5-yl)pyrrolidin-1-yl]piperidin-1-yl}-6-azaspiro[3.4]octane-6-carboxylate], for which the EC50 in assay [1] is 100 nM; in assay [2], over 20000 nM. For the same compound, the values for the Emax in assay [1] and in assay [2] were 55% and 12%, respectively.
Turning to `CCOC(=O)N1CCC2(CC(N3CCC(N4CCCC4c4nnnn4C)CC3)C2)C1` (single isomer, unassigned) [2-130 Isomer 1, ethyl 2-{4-[2-(1-methyl-1H-tetrazol-5-yl)pyrrolidin-1-yl]piperidin-1-yl}-6-azaspiro[3.4]octane-6-carboxylate], in assay [1], the EC50 is 12.6 nM and the “% Emax cf. ACh, M4” value amounted to 20%. In assay [2], the EC50 is 316 nM and the “% Emax cf. ACh, M1” value came to 42%.
On the same counts, the results for `CCOC(=O)N1CCC2(CC(N3CCC(N4CCCC4c4nnnn4C)CC3)C2)C1` (single isomer, unassigned) [2-130 Isomer 2, ethyl 2-{4-[2-(1-methyl-1H-tetrazol-5-yl)pyrrolidin-1-yl]piperidin-1-yl}-6-azaspiro[3.4]octane-6-carboxylate] are 63.1 nM, 66%, over 20000 nM and 11%.
Regarding `CCOC(=O)N1CCC2(CC(N3CCC(N4CCC[C@@H]4c4cccs4)CC3)C2)C1` (single isomer, unassigned) [2-131 Isomer 2], the EC50 in assay [1] is 158 nM; in assay [2], 501 nM. Further, the values for the Emax in assay [1] and in assay [2] were 108% and 61%, respectively.
For `CCOC(=O)N1CCC2(CC(N3CCC(N4CCC[C@@H]4c4nccs4)CC3)C2)C1` (single isomer, unassigned) [2-132 Isomer 2], in assay [1], the EC50 was 12.6 nM and the Emax stood at 72%. Also, in assay [2], the EC50 was over 20000 nM and the Emax turned out to be 18%.
In the case of `CCOC(=O)N1CCC2(CC(N3CCC([C@@H]4CCCN4C(=O)N4Cc5cccnc5C4)CC3)C2)C1` (single isomer, unassigned) [2-133 Isomer 1], in assay [1], the EC50 was 10 nM and the “% Emax cf. ACh, M4” value is listed as 70%. For the same compound, in assay [2], the EC50 was over 20000 nM and the “% Emax cf. ACh, M1” value is reported as 37%.
On the same counts, the results for `CCOC(=O)N1CCC2(CC(N3CCC([C@@H]4CCCN4C(=O)N4Cc5cccnc5C4)CC3)C2)C1` (single isomer, unassigned) [2-133 Isomer 2] are 0.631 nM, 118%, 79.4 nM and 69%.

Source of the values: US9926297B2, “Bicyclic AZA compounds as muscarinic M1 receptor and/or M4 receptor agonists” (Heptares Therapeutics Limited, priority 2014, dated 2018).
